# Test results reported in patent US20090012152A1, “Use of Tetramic Acid Derivatives for Controlling Insects from the Genus of the Plane Lice (Sternorrhyncha)” (Bayer CropScience Aktiengesellschaft, priority 2005, published 2009).
# Tests used:
# Assay type in all cases: in vivo
# [1] = system: Trialeurodes vaporariorum; assay: Example 34: tomatoes treated against Trialeurodes vaporariorum; settings: larvae on leaves, % a.i.: imidacloprid 0.015, I-9 0.0144, I-4 0.0144
# Procedure: In three replications, plots of a size of 5 m^2 with tomatoes of the cultivar “Rio Grande” are treated against Trialeurodes vaporariorum. The application is carried out using a motor-operated knapsack apparatus. Here, the active compounds Example (I-9) (240 SC) and Example (I-4) (240 SC) and the commercial standard imidacloprid (200 SL) are tested at the stated application rates. The application rate is 1000 l of water/ha. Three applications are carried out, at an interval of 11 or 10 days.
# Evaluation is in each case carried out 7 or 10 days after each treatment, by rating the kill of the larvae on the leaves.
# Trioza erythreae = assay: Example 8: orange trees treated against Trioza erythreae; settings: nymphs on branches, rate %: imidacloprid 0.004, I-4 0.0144; for Kill (%) 7 d: 7 d after first of two treatments; for Kill (%) 14 d: 14 d after first of two treatments; for Kill (%) 20 d: 20 d after first of two treatments
# Procedure: In three replications, about 2-year-old orange trees are treated against Trioza erythreae. The application is carried out using a knapsack sprayer operated with pressurized air. Here, the active compound Example (I-4) (240 SC) is tested in a tank mix with 0.2% a.i. of rapeseed oil methyl ester (500 EW) against the commercial standard imidacloprid (100 SL) at the stated application rates. The application rate is 540 l of water/ha. Two treatments are carried out, at an interval of 7 days.
# Evaluation is carried out 7, 14 and 20 days after the first treatment by rating the kill of the nymphs on the branches.
# Aphis gossypii = assay: Example 52: melons treated against Aphis gossypii; settings: on shoots, g a.i./ha: imidacloprid 100, I-4 48; for Kill (%) 3 d: 3 d after treatment; for Kill (%) 7 d: 7 d after treatment
# Procedure: In three replications, plots of a size of 15 m^2 with melons are treated against Aphis gossypii. The application is carried out using a knapsack sprayer operated with pressurized air. Here, the active compound Example (I-4) (240 SC), in a tank mix with 0.1% a.i. of rapeseed oil methyl ester (500 EW), and the standard imidacloprid (200 SL) are applied at the stated application rates. The application rate is 500 l of water/ha.
# Evaluation is carried out 3 days and 7 days after the treatment by rating the kill of the animals on the shoots.
# Pseudococcus spp. = assay: Example 28: vines treated against Pseudococcus spp.; settings: 28 days after last of two treatments, on grapes, imidacloprid drip irrigation 560 g/ha, I-4 0.0168%, I-9 0.0144% spray
# Procedure: In four replications, three in each case about 12-year-old vines of the cultivar “Auvemat” are treated against Pseudococcus spp. The commercial standard used is an application with imidacloprid at the recommended application rate, by drip irrigation. The active compounds are applied by spraying using a knapsack sprayer operated with pressurized air. Here, the active compounds Example (I-4) (240 SC) and Example (I-9) (240 SC) are applied in a tank mix with 0.1% a.i. of rapeseed oil methyl ester (500 EW), at the stated amount. Two applications are carried out at an interval of 15 days. The application rate is 1776 l of water/ha. Evaluation is carried out 28 days after the last treatment by rating the kill on grapes in percent.
# Aleurodes citri = assay: Example 31: orange tree treated against Aleurodes citri; settings: on leaves, g a.i./ha/m crown height: imidacloprid 75, I-4 72; for Kill (%) 7 d: 7 d after treatment; for Kill (%) 14 d: 14 d after treatment; for Kill (%) 21 d: 21 d after treatment
# Procedure: In four replications, in each case one orange tree of the cultivar “Newhall” is treated against Aleurodes citri. Here, the active compound Example (I-4) (240 SC) is, at the stated application rate, tested against the commercial standard imidacloprid. The active compounds are applied in a tank mix with 0.5% a.i. of Oliocin (700 EW), at an application rate of 1500 l of water/ha. The application is carried out using a motor-operated knapsack sprayer.
# Evaluation is carried out 7, 14 and 21 days after the treatment by rating the kill of the animals on the leaves.
# Dysaphis plantaginea = assay: Example 40: apple trees treated against Dysaphis plantaginea; settings: population on shoots, % a.i.: imidacloprid 0.007, I-9 0.0144, I-4 0.0144; for Kill (%) 14 d: 14 d after treatment; for Kill (%) 21 d: 21 d after treatment
# Procedure: In three replications, three about 22-year-old apple trees of the cultivar “Golden Delicious” are treated eradicatively against Dysaphis plantaginea and Aphis pomi. The application is carried out using a motor-operated barrow-mounted sprayer. Here, the active compounds Example (I-9) (240 SC) and Example (I-4) (240 SC) in the stated amount are tested against the commercial standard imidacloprid (200 SL), at the stated application rate. The application rate is 1200 l of water/ha.
# Evaluation is carried out 14 d and 21 d after the treatment by rating the kill of the population on the shoots.
# Viteus vitifolii = assay: Example 4: vines treated against Viteus vitifolii; settings: 60 days after last of three treatments, on roots, imidacloprid drip irrigation 560 g/ha, I-4 0.0168%, I-9 0.0144% leaf spray
# Procedure: In four replications, three in each case about 12-year-old vines of the cultivar “Auvemat” are treated against Viteus vitifolii. As commercial standard, imidacloprid is used at the recommended application rate by drip irrigation. The application of the active compounds is by spray application to the leaves using a knapsack operated with pressurized air. Here, the active compounds Example (I-4) (240 SC) and Example (I-9) (240 SC) are applied in a tank mix with 0.1% a.i. of rapeseed oil methyl ester (500 EW) at the stated amount. There are three applications on day 1, 2 and 15. The application rate is 1776 l of water/ha.
# Evaluation is carried out 60 days after the last treatment by rating the kill on the roots in percent.
# Myzus persicae = assay: Example 47: peach trees infested with Myzus persicae; settings: live animals on shoots, Henderson and Tilten, g a.i./ha/m crown height: imidacloprid 25, I-4 24; for Effect (%) 7 d: 7 d after application; for Effect (%) 14 d: 14 d after application; for Effect (%) 21 d: 21 d after application
# Procedure: In three replications, under practical conditions, about 18-year-old peach trees of the cultivar “Vivian” infested with Myzus persicae are treated with Example (I-4) (240 SC) in a tank mix with 0.2% a.i. of rapeseed oil methyl ester (500 EW) in comparison to the commercial standard imidacloprid 200 SL, at the stated application rates. The application is carried out using a motor-operated knapsack sprayer. The application rate is 1000 l of water/ha.
# Evaluation is carried out 7, 14 and 21 days after the application by counting the live animals on the shoots. The efficacy is then calculated by calculating the effect on the population in percent according to Henderson and Tilten.
Compound,Kill (%) 7 d after the 2nd treatment [1] [%],Kill (%) 10 d after the 1st treatment [1] [%],Kill (%) 10 d after the 3rd treatment [1] [%],Kill (%) 7 d (Trioza erythreae) [%],Kill (%) 14 d (Trioza erythreae) [%],Kill (%) 20 d (Trioza erythreae) [%],Kill (%) 3 d (Aphis gossypii) [%],Kill (%) 7 d (Aphis gossypii) [%],Kill (%) (Pseudococcus spp.),Kill (%) 7 d (Aleurodes citri) [%],Kill (%) 14 d (Aleurodes citri) [%],Kill (%) 21 d (Aleurodes citri) [%],Kill (%) 14 d (Dysaphis plantaginea) [%],Kill (%) 21 d (Dysaphis plantaginea) [%],Kill (%) (Viteus vitifolii),Effect (%) 7 d (Myzus persicae) [%],Effect (%) 14 d (Myzus persicae) [%],Effect (%) 21 d (Myzus persicae) [%]
"O=[N+]([O-])NC1=NCCN1Cc1ccc(Cl)nc1 [imidacloprid, reference compound]",88.4,53.5,67.5,98.4,99.2,98.6,98.2,100,100,98.4,99.6,99.4,97.6,99.8,26,97.6,95.8,78.1
CCOC(=O)OC1=C(c2cc(C)ccc2C)C(=O)NC12CCC(OC)CC2 (stereo not drawn) [Example (I-4)],100,81.9,94.3,97.9,98.9,98.3,94.7,100,99,90.9,99.5,99.9,99.3,100,55,94.0,98.9,93.3
